Experimental data as given in patent US9266871B2, “Trifluoromethyl-substituted fused pyrimidines and their use” (BAYER PHARMA AKTIENGESELLSCHAFT, priority 2013, dated 2016).

Experiment: Pharmacokinetic parameters following intravenous and oral administration
Type: in vivo, rat
Conditions: rats, i.v. 0.3 mg/kg and oral 1 mg/kg
Description: • Klaus Witte, Kai Hu, Johanna Swiatek, Claudia Müssig, Georg Ertl and Björn Lemmer: Experimental heart failure in rats: effects on cardiovascular circadian rhythms and on myocardial β-adrenergic signaling. Cardiovasc Res 47 (2): […], 2000; Kozo Okamoto: Spontaneous hypertension in rats. Int Rev Exp Pathol 7: 227-270, 1969; Maarten van den Buuse: Circadian Rhythms of Blood Pressure, Heart Rate, and Locomotor Activity in Spontaneously Hypertensive Rats as Measured With Radio-Telemetry. Physiology & Behavior 55(4): 783-787, 1994 B-4. Determination of Pharmacokinetic Parameters Following Intravenous and Oral Administration
The pharmacokinetic parameters of the compounds of the formula (I) according to the invention are determined in male CD-1 mice, male Wistar rats and female beagles. Intravenous administration in the case of mice and rats is effected by means of a species-specific plasma/DMSO formulation, and in the case of dogs by means of a water/PEG400/ethanol formulation. In all species, oral administration of the dissolved substance is performed via gavage, based on a water/PEG400/ethanol formulation. The removal of blood from rats is simplified by inserting a silicone catheter into the right Vena jugularis externa prior to substance administration. The operation is effected at least one day prior to the experiment with isofluran anaesthesia and administration of an analgesic ([…]/rimadyl (3/1) 0.1 ml s.c.). The blood is taken (generally more than 10 time points) within a time window including terminal time points of at least 24 to a maximum of 72 hours after substance administration. The blood is removed into heparinized tubes. The blood plasma is then obtained by centrifugation; if required, it can be stored at −20° C. until further processing.
An internal standard (which may also be a chemically unrelated substance) is added to the samples of the compounds of the formula (I) according to the invention, calibration samples and qualifiers, and this is followed by protein precipitation using excess acetonitrile. Addition of a buffer solution matched to the LC conditions, and subsequent vortexing, is followed by centrifugation at 1000 g. The supernatant is analysed by means of LC-MS/MS using C18 reversed-phase columns and variable mobile phase mixtures. The substances are quantified via the peak heights or areas from extracted ion chromatograms of specific selected ion monitoring experiments.
The plasma concentration/time plots determined are used to calculate the pharmacokinetic parameters such as AUC (area under the curve), Cmax, t1/2 (terminal half life), F (bioavailability), MRT (mean residence time) and CL (clearance), using a validated pharmacokinetic calculation programme.
Since the substance quantification is performed in plasma, it is necessary to determine the blood/plasma distribution of the substance in order to be able to adjust the pharmacokinetic parameters correspondingly. For this purpose, a defined amount of substance is incubated in heparinized whole blood of the species in question in a rocking roller mixer for 20 min. After centrifugation at 1000 g, the plasma concentration is measured (by means of LC-MS/MS; see above) and determined by calculating the ratio of the Cblood/Cplasma value.

C[C@@]1(C(F)(F)F)C(=O)Nc2nc(-c3nn(Cc4ncccc4F)c4ncc(F)cc34)nc(NCCC(F)(F)F)c21 (single isomer, unassigned) [Example 1-1]
MRT (male, Wistar, rat, plasma): 6.6 h | half-life (male, Wistar, rat, plasma): 5.9 h | AUCnorm: 1.77 kg·h/L | CLblood: 0.70 L/h/kg | F: 98.8%
